Legend:
[1] = system: Western diet fed Sprague Dawley rats; experiment: Compound A / Compound D study in Western diet fed rats: hepatic triglyceride (steatosis); type: in vivo, rat; settings: relative to vehicle administered Western diet fed rats
Description: (§1) A randomized, vehicle-controlled, 8-parallel arm study was conducted in male Sprague-Dawley rats (Charles River (Boston, MA)) to obtain circulating and hepatic TG levels. Standard laboratory conditions were used to house 96 rats (˜200 g); they were double housed and kept under 12:12-hour reverse light-dark schedule (lights off at 8:00 AM). Rats were randomized into chow or Western diet groups and dose groups upon arrival and were given a 14-day lead-in period on either standard rat chow or Western diet prior to the start of the study. Standard Laboratory Rodent chow diet, 5053, was from LabDiet (PMI, St Louis, Missouri). Western Diet, D12079Bi, was from Research Diets (New Brunswick, NJ).
For these studies, vehicle was prepared to make a 0.5% (wt/volume) of methyl cellulose (MC, Sigma Aldrich, 274429) in deionized water.
On the last day of the study (Day 28), rats were sacrificed for tissue collection after a 4 hour fast, 2 hours post-dose: two hours post-dose, blood for determining plasma analytes was collected via lateral tail vein and then the animals were sacrificed by CO2 asphyxiation. Blood was transferred to BD Microtainer tubes coated with K2EDTA (PN365974), centrifuged at 4° C. and the plasma transferred to a 96-well microtitre plate and stored at −20° C. Livers were rapidly removed, freeze-clamped in a Wollenberg clamp pre-cooled in liquid N2 individually wrapped in aluminum foil and subsequently stored at −80° C.
Tissue pulverization: Frozen livers were rapidly pulverized on an aluminum block cooled in liquid N2, ensuring the tissue remained frozen throughout the pulverization. The pulverized tissues were transferred and stored in 7 mL polypropylene conical tubes at −80° C. until analysis.
Extraction for hepatic triglyceride: Approximately 50 to 100 mg of pulverized tissue was added to a 2 mL lysing matrix D tube (MP Bio) containing 800 μL ice cold 1:1 CHCl3:MEOH. Samples were immediately extracted at 4° C. using Qiagen Tissue Lyser II (Qiagen Cat No. 85300) for 4 minutes at 30 Hz. The homogenate was then transferred to 13×100 mm glass tubes and placed on ice. The lysis tubes were then rinsed with 800 μL of 1:1 CHCl3:MeOH, vortexed for 30 seconds and added to the 13×100 mm glass tubes. While on ice, 2.4 ml of 100% CHCl3 was added to all glass vials to bring the ratio of CHCl3:MeOH to 4:2. Samples were then placed in the −20° C. freezer overnight. On the following day, 1.75 mL 1 M KCl H2O was added to bring the ratio to 4:2:1.75 ratio CHCl3:MeOH:H2O. Samples were then vortexed for 30 seconds and centrifuged at 1500 rpm×15 min., at 4° C. After centrifugation, the organic phase was transferred to a fresh 13×100 mm extraction tube, dried down at 37° C. under N2 and re-suspended in 750 μL CHCl3. […]

αSMA and COL1A1 = experiment: CDAHFD rat study: hepatic αSMA and COL1A1 gene expression (qPCR); type: in vivo; settings: Compound A 5 mg/kg, Compound D 30 mg/kg twice daily, 6 weeks
Description: Standard laboratory conditions were used to house 60 rats (˜200 g); they were double housed and kept under 12:12-hour reverse light-dark schedule (lights off at 8:00 AM). Rats were fed choline deficient and high fat diet (CDAHFD) beginning 6-weeks prior to initiation of the study. […] Animals (n=12) remaining on normal chow throughout the study and administered twice-daily vehicle were used as a control group. Blood samples were collected prior to starting compound administration and 3- and 6-week post compound administration for the assessment of circulating markers. Shearwave elastography (Aixplorer Ultimate imager, Supersoinc imagine) measurements were made at Week −3, Week 0 (prior to 1st dose), Week 3 and Week 6 to assess inflammation and fibrosis progression over time. Histology was assessed following 6-weeks of drug administration which corresponded to 12 weeks on the CDAHFD. Results are provided as an average of animals per each dosing group.
Following the 12-weeks on CDAHFD, the animals were sacrificed by CO2 asphyxiation. The right lateral, medial and left lateral lobes of the liver were harvested. […] A portion of the pulverized liver sample from each animal was processed and analyzed for gene expression markers of fibrogenesis. Rat taqman probes against αSMA and COL1A1 were all assessed using Actb as housekeeping gene on qPCR.

[2] = system: ACC1, FASN, SCD1, PCSK9 and SREBP-1c; experiment: Compound A / Compound D study in Western diet fed rats: hepatic lipogenic gene expression (qPCR); type: in vivo, rat; settings: relative to Western diet fed vehicle treated rats
Description: as §1
Another portion of the pulverized liver was processed and analyzed for lipogenic gene expression. Rat taqman probes against ACC1, FASN, SCD1, PCSK9 and SREBP-1c were all assessed using Actb as housekeeping gene on qPCR.

[3] = high dose (Compound A 10 mg/kg QD, Compound D 30 mg/kg BID)
[4] = low dose (Compound A 1 mg/kg QD, Compound D 5 mg/kg BID)

SMILES	reduction in steatosis (hepatic triglyceride) [1, 3] [%]	reduction in steatosis (hepatic triglyceride) [1, 4] [%]	hepatic αSMA and COL1A1 gene expression (αSMA and COL1A1)	hepatic lipogenic gene expression (ACC1, FASN, SCD1, SREBP1, PCSK9) [2]
CCOc1cccnc1Oc1cncc(-c2ncc(C(=O)N[C@H]3CCOC3)cn2)c1 [Compound D, (S)-2-(5-((3-ethoxypyridin-2-yl)oxy)pyridin-3-yl)-N-(tetrahydrofuran-3-yl)pyrimidine-5-carboxamide]	30	25	reduced hepatic αSMA and COL1A1 gene expression	decreased expression of all of the lipogenic genes
COc1cc(C(=O)N2CCC3(CC2)CC(=O)c2c(cnn2C(C)C)C3)cc(-c2ccc(C(=O)O)cc2)n1 [Compound A, 4-(4-(1-isopropyl-7-oxo-1,4,6,7-tetrahydrospiro[indazole-5,4′-piperidine]-1′-carbonyl)-6-methoxypyridin-2-yl)benzoic acid]	53	36	reduced hepatic αSMA and COL1A1 gene expression	trended to further increase
